{"source": "patent US5068198A", "about": "“Liquid single reagent for assays involving confining gels” (Syntex (U.S.A.) Inc., priority 1989, dated 1991)", "key": {"Anti-digoxin [1]": {"system": "Anti-digoxin", "source_text": "As a comparison to the assay using a single liquid reagent an assay was run using unencapsulated enzyme conjugate and antibody in separate liquid reagents. The reagent quantities and the final volume of the assay were arranged to be identical to those in the single reagent assay above in Example 3."}, "Anti-digoxin [2]": {"system": "Anti-digoxin", "remark": "listed apart in the source", "procedure": "Reagent: Digoxin-G6PDH encapsulated\nin liposomes (POPC 70%, POPG\nAnti-digoxin optimized for\nresponse, 0.13M G6P, RSA (20\nDiluent: 0.5% Triton, 4 mM NAD, 5mM\nProtocol: 50 μl of the reagent was drawn up into a diluter and dispensed with 200 μl of buffer containing RSA (1 mg/ml) into a 1 ml Croan cup. A 50 μl aliquot of the sample was drawn up and dispersed with 700 μl of diluent into the Croan cup. Immediately after sample addition, the entire sample was aspirated into a flow cell and readings were taken at 30° over thirty seconds."}, "[3]": {"system": "monoclonal anti-theophylline", "test": "Assay for theophylline using encapsulated Theophylline-G6PDH as a single liquid reagent", "type": "biochemical", "protocol": "Theophylline-G6PDH was encapsulated in liposomes (POPC 76%, POPG 4%, and cholesterol 20%) and used in an assay for theophylline. The assay employed the following reagents:\nProtocol 0.3 ml of the Reagent dispensed into a Croan cup."}, "G6PDH": {"system": "G6PDH", "test": "Inhibition of G6PDH by encapsulated and free Anti-G6PDH, with or without Triton", "type": "biochemical", "details": "Triton 5%; in words", "protocol": "Anti-G6PDH was encapsulated in liposome. The liposome composition was L-α-dioleoyl lecithin (70%) and L-α-dioleoyl phosphatidyl glycerol (30%).\nEnzyme: G6PDH, dissolved in buffer\nFree Antibody: Anti-G6PDH, in buffer\nSubstrate: 0.13M G6P, 0.08M NAD, and\nProtocol: 50 μl of enzyme (270 ng) was mixed with 50 μl of free or encapsulated antibody and 0.6 ml Buffer containing (1 mg/ml) with or without 5% Triton. After one hour at ambient temperature, 50 μl of substrate was added together with 0.3 ml buffer."}, "[4]": {"details": "digoxin 0.083 μg/ml, 30°, thirty seconds"}}, "note": "Where two headings read alike, the source gives them in different places."}
{"compound": "C[C@H]1O[C@@H](O[C@H]2[C@@H](O)C[C@H](O[C@H]3[C@@H](O)C[C@H](O[C@H]4CC[C@@]5(C)[C@H](CC[C@@H]6[C@@H]5C[C@@H](O)[C@]5(C)[C@@H](C7=CC(=O)OC7)CC[C@]65O)C4)O[C@@H]3C)O[C@@H]2C)C[C@H](O)[C@@H]1O", "note": "[Digoxin, digoxin]", "values": [{"measurement": "enzyme activity, Two Reagent", "setting": "Anti-digoxin [1]; [4]", "result": 410, "unit": "EU"}, {"measurement": "enzyme activity, Two Reagent", "setting": "Anti-digoxin [1]; digoxin 0.166 μg/ml", "result": 456, "unit": "EU"}, {"measurement": "enzyme activity, Two Reagent", "setting": "Anti-digoxin [1]; digoxin 0.333 μg/ml", "result": 518, "unit": "EU"}, {"measurement": "enzyme activity, Two Reagent", "setting": "Anti-digoxin [1]; digoxin 0.666 μg/ml", "result": 603, "unit": "EU"}, {"measurement": "enzyme activity, Two Reagent", "setting": "Anti-digoxin [1]; digoxin 1.33 μg/ml", "result": 645, "unit": "EU"}, {"measurement": "enzyme activity, Two Reagent", "setting": "Anti-digoxin [1]; digoxin 2.66 μg/ml", "result": 678, "unit": "EU"}, {"measurement": "enzyme activity, Two Reagent", "setting": "Anti-digoxin [1]; digoxin 5.33 μg/ml", "result": 713, "unit": "EU"}, {"measurement": "enzyme activity, Two Reagent", "setting": "Anti-digoxin [1]; digoxin 10.65 μg/ml", "result": 717, "unit": "EU"}, {"measurement": "enzyme activity, Single Reagent", "setting": "Anti-digoxin [2]; [4]", "result": 403, "unit": "EU"}, {"measurement": "enzyme activity, Single Reagent", "setting": "Anti-digoxin [2]; digoxin 0.166 μg/ml", "result": 440, "unit": "EU"}, {"measurement": "enzyme activity, Single Reagent", "setting": "Anti-digoxin [2]; digoxin 0.333 μg/ml", "result": 511, "unit": "EU"}, {"measurement": "enzyme activity, Single Reagent", "setting": "Anti-digoxin [2]; digoxin 0.666 μg/ml", "result": 584, "unit": "EU"}, {"measurement": "enzyme activity, Single Reagent", "setting": "Anti-digoxin [2]; digoxin 1.33 μg/ml", "result": 628, "unit": "EU"}, {"measurement": "enzyme activity, Single Reagent", "setting": "Anti-digoxin [2]; digoxin 2.66 μg/ml", "result": 653, "unit": "EU"}, {"measurement": "enzyme activity, Single Reagent", "setting": "Anti-digoxin [2]; digoxin 10.65 μg/ml", "result": 665, "unit": "EU"}]}
{"compound": "Cn1c(=O)c2[nH]cnc2n(C)c1=O", "note": "[Theophylline, theophylline]", "values": [{"measurement": "enzyme activity, Single Reagent", "setting": "[3]; theophylline 2.5 μg/ml, 30°, thirty second read", "result": 356, "unit": "Eu"}, {"measurement": "enzyme activity, Single Reagent", "setting": "[3]; theophylline 5 μg/ml", "result": 394, "unit": "Eu"}, {"measurement": "enzyme activity, Single Reagent", "setting": "[3]; theophylline 10 μg/ml", "result": 455, "unit": "Eu"}, {"measurement": "enzyme activity, Single Reagent", "setting": "[3]; theophylline 20 μg/ml", "result": 537, "unit": "Eu"}, {"measurement": "enzyme activity, Single Reagent", "setting": "[3]; theophylline 40 μg/ml", "result": 610, "unit": "Eu"}]}
{"compound": "Triton", "values": [{"measurement": "effect of Triton on enzyme activity or extent of inhibition in enzyme by antibody", "setting": "G6PDH", "result": "did not affect"}]}
